# Measured values published in patent US20230192895A1, “PHARMACOKINETIC & PHARMACODYNAMIC MODEL FOR DETERMINING EFFECTIVE DOSE OF ANTI-TICAGRELOR ANTIBODY” (PhaseBio Pharmaceuticals, Inc., priority 2021, published 2023).
# B1: PB2452: recombinant human IgG1λ monoclonal Fab antibody fragment that binds specifically to ticagrelor and TAM (antibody, listed as Homo sapiens)
# heavy: QVQLQESGAEVKKPGSSVRVSCKASGGTFDSYSIHWVRQAPGQGLEWMGGIIPAFGTLSSAQDFQARVTISADKSTSTAYMELSGLRSEDTAVYYCARGSFDYYFWSASHPPNDALAIWGQGTLVTVSSASTKGPSVFPLAPSSKSTSGGTAALGCLVKDYFPEPVTVSWNSGALTSGVHTFPAVLQSSGLYSLSSVVTVPSSSLGTQTYICNVNHKPSNTKVDKRVEPKSCDK
# light: QSVVTQPPSVSAAPGQKVTISCSGSNSDIGNNYVSWYQQLPGTAPKLLIYDNNKRPSGIPDRFSGSKSGTSATLAITGLQAGDEADYYCGTWLYDRAVGLFGGGTKVTVLGQPKAAPSVTLFPPSSEELQANKATLVCLISDFYPGAVTVAWKADSSPVKAGVETTTPSKQSNNKYAASSYLSLTPEQWKSHRSYSCQVTHEGSTVEKTVAPTECS
# modifications: PB2452 VH with CH1; PB2452 VL with CL
# Assays:
# [1] = tested on: PB2452 binding to biotinylated ticagrelor; experiment: Selectivity of PB2452 by competition binding with PB2452 to biotinylated ticagrelor; set-up: species or system human
# Excerpt: The chemical starting point for the development of ticagrelor was adenosine triphosphate (ATP), and ticagrelor retains an adenosine-like core.
# [2] = tested on: P2Y12 reactivity units (PRU); experiment: animal or person
# Excerpt: where Base refers to the baseline (prior to administration of Ticagrelor) value. Emaxi, EC50i, and the Hill coefficient (γ) are parameters to be estimated. The same structural model was used for PRU, VASP, and LTA.
# The Emax parameter relating TICA to PRU (as well as VASP and LTA) was fixed to 90%. […] It is anticipated that this parameter value would be large^13 so it was fixed at a large value. […] This value was chosen based on literature^9, 14. Finally, fm was set equal to 0.30.
# For parameters that were to be estimated, most of the prior distributions were uninformative or weakly informative.
# [3] = Final population PK/PD model: PK parameters of TICA, TAM, PB2452 and complexes; assay type: in vivo, human
# Protocol: A diagram of the model considered is in FIG. 1. Ticagrelor is dosed orally and passes through 2 transit compartments prior to entering the central compartment. […] PB2452 is dosed IV, and directly enters the central compartment. PB2452 can also diffuse into a peripheral compartment. […] In the model, it is assumed that the complexes are cleared at the same rate as PB2452. Additional compartments for the complex to enter where TICA and TAM return to circulation while PB2452 is removed from the system is also included in the model.
# The expected result would be an increase in PRI/LTA/VASP to baseline (pre-ticagrelor administration) levels. Baseline PRU/LTA/VASP were added in the models observed value from the data for each subject. An ETA term was added to allow for potential measurement error. […] Astrand et al. (2019).
# (§1) The PK parameters associated with this model are in Table 2. […] In the PK/PD model, the parameters associated with the PK of PB2452 (that are not associated with the relationship between PB2452/TICA/TAM) were fixed to these values.
# (§2) To achieve improved fit to the study data, multiple adjustments were made to the model. […] These updates led to significant improvements in the fit of the model to the data.
# The final step in model development was addition of significant covariates. […] Based on the covariate plots for the final model with the covariates included, no other covariates were added.
# [4] = tested on: P2Y12 reactivity units (PRU); details: fixed in model, not estimated; cited from earlier work
# [5] = tested on: P2Y12 receptor-induced platelet aggregation and P2Y12 receptor signaling; experiment: Phase 1 trial: reversal of the antiplatelet effects of ticagrelor (PRU/LTA/VASP); assay type: in vivo, human
# Protocol: This model was developed during the conduct of the first-in-human study and used to inform dosing decisions throughout the study. The model was then updated with final data from the trial and will be used to inform subsequent early-phase clinical trials being conducted.
# The study had 10 cohorts of healthy volunteers.
# Subjects in Cohorts 4-10 were pretreated with ticagrelor for 48 hours. The first dose of ticagrelor was an oral loading dose of 180 mg followed by 90 mg administered orally twice daily for 2 days.
# [6] = Population PK model of PB2452 alone (two-compartment, Cohorts 1-3); assay type: in vivo, human
# Protocol: Population PK and PK/PD analyses were carried out using NONMEM version 7.4, PDx-Pop version 5.2 and Intel Visual Fortran Compiler version 12 on Microsoft Windows 10 Professional.
# The models described in the following sections are non-linear hierarchical models that were fit using Bayesian Markov Chain Monte-Carlo (MCMC) techniques. If θ and φj represent vectors of individual PK and PD parameters, respectively, then it was assumed that they follow distributions with population parameters Θ and Φ, respectively. The parameters Θ and Φ were then assigned prior distributions according to the prior information available. The Bayesian analysis involved the estimation of the joint distribution of all parameters conditional on the observed data: p(θ, φ, Θ, Φ|PK and PD data), where θ and φ denote collections of all individual specific PK and PD parameters, respectively. Generating random samples from the joint posterior distribution allows the marginal distribution of each parameter to be completely characterized. More details on Bayesian methods in general may be found in (Lunn, Best, Thomas, Wakefield, & Spiegelhalter, 2002).
# The MU referencing technique was utilized in NONMEM (Bauer, 2019). In particular, MU_1 (for example) was set equal to THETA(1). Then a particular model parameter was set equal to EXP(MU_1+ETA(1)). So, THETA represents the population value of the parameter on the log-scale. This usually helps to improve the efficiency (speed of convergence, reduced autocorrelation) of the algorithms (MCMC, but also applies to other “advanced” algorithms available) utilized.
# as §1
# [7] = tested on: metabolism of TICA to TAM; experiment: Final population PK/PD model: metabolism of TICA as a function of PB2452 concentration; assay type: in vivo, human; details: value is natural log of Emaxf
# Excerpt: as §2
# [8] = read-out: Kd (affinity of PB2452 for TICA and TAM); fixed in model, chosen based on literature; cited from earlier work
# [9] = 6 g IV bolus, then 6 g over 4 h, then 6 g over 12 h, study subjects pretreated with ticagrelor
# [10] = cohorts 4, 5 and 6 (1, 3, 9 g PB2452 over 30 minutes)
molecule,measurement,setting,value
"Nc1ncnc2c1ncn2[C@@H]1O[C@H](COP(=O)(O)OP(=O)(O)O)[C@@H](O)[C@H]1O [ADP, adenosine diphosphate]",Inhibition of PB2452 binding to biotinylated ticagrelor,[1],No inhibition
"Nc1ncnc2c1ncn2[C@@H]1O[C@H](COP(=O)(O)OP(=O)(O)OP(=O)(O)O)[C@@H](O)[C@H]1O [ATP, adenosine triphosphate]",Inhibition of PB2452 binding to biotinylated ticagrelor,[1],No inhibition
CCCSc1nc(N[C@@H]2C[C@H]2c2ccc(F)c(F)c2)c2nnn([C@@H]3C[C@H](O)[C@@H](O)[C@H]3O)c2n1 [TAM],"THETA9 final estimate; Emax2 = EXP(THETA9), Emax for relating TAM to PRU",[2]; value is natural log of Emax2,0.0181
"CCCSc1nc(N[C@@H]2C[C@H]2c2ccc(F)c(F)c2)c2nnn([C@@H]3C[C@H](OCCO)[C@@H](O)[C@H]3O)c2n1 [TICA, (1S,2S,3R,5S)-3-[7-{[(1R,2S)-2-(3,4-difluorophenyl)cyclopropyl]amino}-5-(propylthio)-3H-[1,2,3]triazolo[4,5-d]pyrimidin-3-yl]-5-(2-ydroxyethoxy)cyclopentane-1,2-diol]",EC50,"[2]; Homo sapiens, read-out: EC50 (Emax model relating uncomplexed analyte to PD measure)",> 20 µM
same,"THETA1 final estimate; EC50 (nmol/L) = EXP(THETA1), EC50 for relating TICA to PRU",[2]; value is natural log of EC50 in nmol/L,10.6
same,Range of uncomplexed TICA expected based on the model,[3]; model-based concentration,less than 2000 nmol/L
same,Metabolism for TICA to TAM corresponding to fm,[3]; when no PB2452 is present,about 23%
same,Emax parameter relating TICA to PRU (as well as VASP and LTA),[4],90%
Nc1ncnc2c1ncn2[C@@H]1O[C@H](CO)[C@@H](O)[C@H]1O [adenosine],Inhibition of PB2452 binding to biotinylated ticagrelor,[1],No inhibition
CCCC(=O)Nc1ncnc2c1ncn2[C@@H]1O[C@@H]2COP(=O)(O)O[C@H]2[C@H]1OC(=O)CCC [bucladesine],Inhibition of PB2452 binding to biotinylated ticagrelor,[1],No inhibition
CSCCNc1nc(SCCC(F)(F)F)nc2c1ncn2[C@@H]1O[C@H](COP(=O)(O)OP(=O)(O)C(Cl)(Cl)P(=O)(O)O)[C@@H](O)[C@H]1O [cangrelor],Inhibition of PB2452 binding to biotinylated ticagrelor,[1],No inhibition
O=C1CCc2cc(OCCCCc3nnnn3C3CCCCC3)ccc2N1 [cilostazol],Inhibition of PB2452 binding to biotinylated ticagrelor,[1],No inhibition
NS(=O)(=O)c1cc2c(cc1Cl)NC(C1CC3C=CC1C3)NS2(=O)=O (stereo not shown) [cyclothiazide],Inhibition of PB2452 binding to biotinylated ticagrelor,[1],No inhibition
CC1(C)C(C=C(Cl)Cl)C1C(=O)OC(C#N)c1ccc(F)c(Oc2ccccc2)c1 (stereo not shown) [cyfluthrin],Inhibition of PB2452 binding to biotinylated ticagrelor,[1],No inhibition
CC(=O)NC[C@H]1CN(c2ccc(N3CCOCC3)c(F)c2)C(=O)O1 [linezolid],Inhibition of PB2452 binding to biotinylated ticagrelor,[1],No inhibition
CC[C@H](C)C(=O)O[C@H]1C[C@@H](C)C=C2C=C[C@H](C)[C@H](CC[C@@H]3C[C@@H](O)CC(=O)O3)[C@H]21 [lovastatin],Inhibition of PB2452 binding to biotinylated ticagrelor,[1],No inhibition
COC(=O)C1=C(C#N)NC(C)=C(C(=O)OC(C)C)C1c1cccc([N+](=O)[O-])c1 (stereo not shown) [nilvadipine],Inhibition of PB2452 binding to biotinylated ticagrelor,[1],No inhibition
CNC(=O)c1cnn(-c2nc(N)c3ncn([C@@H]4O[C@H](CO)[C@@H](O)[C@H]4O)c3n2)c1 [regadenoson],Inhibition of PB2452 binding to biotinylated ticagrelor,[1],No inhibition
B1,Time for which complete reversal was sustained,[5]; [9],20 to 24 h
same,Time from infusion onset to complete reversal of the antiplatelet effects of ticagrelor,[5]; [9],≤ 5 min
same,Effect of higher dose and prolonged infusion on PRU,"[5]; cohort 7 and those that followed (18 g, bolus plus prolonged infusion)",prolonged the increase in PRU
same,Effect on PRU after cessation of infusion,"[5]; cohort 7 and those that followed, despite dose escalation",unexpected loss of effect was observed post-cessation of the drug infusion
same,Duration of early effect on PRU before return to post-TICA levels,[5]; [10],less than two
same,Early effect on PRU,[5]; [10],the PRU values were increased close to values before TICA was administered
same,Central volume of distribution,"[6]; IV, Cohorts 1-3",2.86 L
same,Clearance,"[6]; IV, Cohorts 1-3",1.88 L/h
same,Half-life for the distribution phase,"[6]; IV, Cohorts 1-3",48.6 min
same,Half-life for the elimination phase,"[6]; IV, Cohorts 1-3",6.68 h
same,THETA3 final estimate; Q (L/hr) = EXP(THETA3),[6]; value is natural log of Q in L/hr,−0.770
same,THETA2 final estimate; V1 (L) = EXP(THETA2),[6]; value is natural log of V1 in L,1.05
same,THETA4 final estimate; V2 (L) = EXP(THETA4),[6]; value is natural log of V2 in L,1.24
same,"THETA6 final estimate; Emaxf = EXP(THETA6), Emax for relating metabolism of TICA to PB2452 concentrations",[7],2.98
same,THETA4 final estimate; Ktr (hr^−1) = EXP(THETA4 + THETA13*(LOG(WT) − 4.35)),"[3]; value is natural log of Ktr, rate at which PB2452-TICA and PB2452-TAM complexes move through the added compartments",−1.22
same,Kd,[8],0.018 nM
